# Test results reported in patent publication US11154554B2, “Therapeutic combinations of a MEK inhibitor and a BTK inhibitor” (Acerta Pharma B.V., priority 2015, dated 2021).
# Like-named read-outs stand apart in the source and are kept apart here.
# Assays:
# [1] = system: BCR activation markers CD69 and CD86; assay: In vivo potency, BCR activation markers after oral gavage; conditions: mice, 3 hours post-dose, BCR stimulated with IgM
# Experimental: Mice were gavaged at increasing drug concentration and sacrificed at one time point (3 hours post-dose). BCR is stimulated with IgM and the expression of activation markers CD69 and CD86 are monitored by flow cytometry to determine ECovalues.
# CD86 and CD69 are cell surface proteins that are BCR activation markers. […] BCR was stimulated with IgM and the expression of activation marker CD69 and CD86 are monitored by flow cytometry to determine EC50 values.
# [2] = Glutathione binding and depletion in vitro; format: in vitro ADME
# CYP3A4 = CYP3A4 (Homo sapiens, UniProt P08684); assay: Loss of parent drug as catalyzed by CYPs; format: in vitro ADME; conditions: in vitro
# B cell receptor = assay: Whole blood B cell receptor signalling assay (CD69 on CD19+ B cells); format: cell-based; conditions: whole blood of four healthy donors, 2 hours with compound, anti-human IgD 10 μg/mL for 18 hours, read-out: EC50, CD69 on gated CD19+ B cells
# BTK = biological target: T1, BTK (Mus musculus, UniProt P35991); assay: Molecular probe assay of BTK occupancy in MDSCs of PDA mice; format: in vivo; conditions: 15 mg/kg BID; granulocytic and monocytic MDSC compartments; Day 8, 4 hours post dose
# T1 construct: MDSCs were purified from tumor bearing PDA mice; endogenous in cells; host or cells: granulocytic and monocytic MDSCs from PDA mice dosed in vivo
# Text: A molecular probe assay was used to calculate the percent irreversible occupancy of total BTK.
# [3] = system: 80 known pharmacologic targets such as G-protein-coupled receptors, nuclear receptors, proteases, and ion channels; assay: Binding assays on 80 known pharmacologic targets; conditions: screened at 10 μM
# GPVI [4] = system: GPVI
# [5] = Metabolism in plasma, bile, and urine; format: in vivo; conditions: rats, dogs, and monkeys; preliminary evaluations
# CD8^+ T cells [6] = assay: IFN-γ level measurements for CD8+ T cell function; format: cell-based; conditions: relative to vehicle
# GPVI [7] = assay: GPVI platelet aggregation
# EGFR = EGFR (Homo sapiens, UniProt P00533); assay: EGF receptor phosphorylation in A431 cells
# [8] = system: human platelet-mediated thrombus formation; assay: In vivo human thrombus formation in VWF HA1 mice (laser injury); conditions: human platelets preincubated with inhibitor, laser-induced injury
# hepatocytes = assay: In vitro metabolism in hepatocytes with 14C-labeled drug; format: in vitro ADME, mouse, rat, dog, rabbit, monkey, and human
# CYP enzymes = assay: Nonclinical CYP interaction studies; format: in vitro ADME
# NK cells [9] = assay: NK cell degranulation/ADCC whole blood assay with obinutuzumab; format: cell-based, human; conditions: 1 hour pretreatment, MEC-1 opsonised with obinutuzumab 1 μg/mL, 4 hours
# Experimental: Degranulation in whole blood was performed as follows. […] Exponentially growing cells were used. On the day of the experiment, 8 mL of blood was drawn from a normal volunteer into a test tube containing desirudin to obtain a final concentration of 50 μg/mL. A white blood cell (WBC) count of whole blood was performed. […] The ibrutinib control and two blinded BTK inhibitors were diluted in X-VIVO 15 serum-free hematopoietic cell medium (Lonza Group, Ltd.) to concentrations of 200 μM, 20 μM and 2 μM. 170 μL aliquots of unmanipulated whole blood were incubated with 10 μL BTK inhibitors or X-VIVO 15 medium for one hour into a plate. […] The samples were placed in a 5% CO2 incubator for 4 hours at 37° C.
# After 4 hours, the samples were mixed gently and 50 μL aliquots were removed from each well and placed in fluorescence-activated cell sorting (FACS) test tubes. A 20 μL aliquot of anti-CD56-APC antibody and anti-CD107a-PE antibody was added. The samples were incubated for 20 minutes at room temperature in the dark. An aliquot of 2 mL of FACS lysing solution (BD Biosceinces) was added. The samples were again incubated for 5 minutes, and then centrifuged at 2000 rpm for 5 minutes. Supernatant was discarded and the cell pellet was resuspended in 500 μL of PBS. The samples were analyzed on the flow cytometer for CD107a^+ NK cells (CD56^+).
# CD8^+ T cells [10] = assay: Cytotoxicity assay for CD8+ T cell function; format: cell-based; conditions: relative to vehicle
# NK cells [11] = assay: Rituximab ADCC mediated by NK cells; format: cell-based
# [12] = system: KrasLA2 non-small cell lung cancer (NSCLC) model; assay: KrasLA2 genetic tumor model of NSCLC; format: in vivo, mice; conditions: 15 mg/kg
# Text: The model is designed to have sporadic expression in single cells of G12D mutant Kras off its own promoter triggered by spontaneous intrachromosomal recombination. Johnson, et al. Nature 2001, 410, 1111-16. While the mutant Kras protein is expressed in a few cells in all tissues, tumor development is seen only in the lung at high penetrance.
# [13] = within the tested dose range (through 840 mg); cited from earlier work
# Sequence of EGFR (P00533 25-1210): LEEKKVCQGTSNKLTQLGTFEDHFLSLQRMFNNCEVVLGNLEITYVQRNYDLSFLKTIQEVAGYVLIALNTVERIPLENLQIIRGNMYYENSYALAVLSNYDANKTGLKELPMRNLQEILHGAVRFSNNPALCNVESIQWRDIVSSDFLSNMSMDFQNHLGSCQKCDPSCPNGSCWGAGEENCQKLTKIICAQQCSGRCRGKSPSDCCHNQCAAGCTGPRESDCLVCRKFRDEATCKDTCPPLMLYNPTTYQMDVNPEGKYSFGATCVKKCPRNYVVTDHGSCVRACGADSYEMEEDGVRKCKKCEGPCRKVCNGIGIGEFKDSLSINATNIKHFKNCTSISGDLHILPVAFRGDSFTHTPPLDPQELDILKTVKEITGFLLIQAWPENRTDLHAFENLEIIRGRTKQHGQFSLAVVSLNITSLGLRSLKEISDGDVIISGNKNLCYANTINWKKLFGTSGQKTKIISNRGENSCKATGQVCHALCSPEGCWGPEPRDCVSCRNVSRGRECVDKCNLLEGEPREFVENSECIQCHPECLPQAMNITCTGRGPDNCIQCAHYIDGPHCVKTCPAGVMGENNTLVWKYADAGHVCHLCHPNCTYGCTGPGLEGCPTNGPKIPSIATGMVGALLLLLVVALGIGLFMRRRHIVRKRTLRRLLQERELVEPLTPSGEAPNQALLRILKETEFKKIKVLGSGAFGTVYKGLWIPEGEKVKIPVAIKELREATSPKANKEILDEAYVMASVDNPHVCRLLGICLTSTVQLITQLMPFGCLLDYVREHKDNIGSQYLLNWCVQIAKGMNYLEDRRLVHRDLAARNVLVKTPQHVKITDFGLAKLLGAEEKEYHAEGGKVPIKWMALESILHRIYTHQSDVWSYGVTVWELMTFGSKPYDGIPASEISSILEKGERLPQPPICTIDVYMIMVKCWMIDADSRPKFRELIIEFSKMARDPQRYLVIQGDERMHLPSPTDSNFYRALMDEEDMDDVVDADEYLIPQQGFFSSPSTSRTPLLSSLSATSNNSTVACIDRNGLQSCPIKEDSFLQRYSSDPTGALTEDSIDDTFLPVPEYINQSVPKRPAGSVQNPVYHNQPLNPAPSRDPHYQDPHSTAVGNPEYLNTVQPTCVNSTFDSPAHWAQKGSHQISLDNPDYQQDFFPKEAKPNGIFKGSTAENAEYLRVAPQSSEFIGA
# Sequence of CYP3A4 (P08684 whole entry): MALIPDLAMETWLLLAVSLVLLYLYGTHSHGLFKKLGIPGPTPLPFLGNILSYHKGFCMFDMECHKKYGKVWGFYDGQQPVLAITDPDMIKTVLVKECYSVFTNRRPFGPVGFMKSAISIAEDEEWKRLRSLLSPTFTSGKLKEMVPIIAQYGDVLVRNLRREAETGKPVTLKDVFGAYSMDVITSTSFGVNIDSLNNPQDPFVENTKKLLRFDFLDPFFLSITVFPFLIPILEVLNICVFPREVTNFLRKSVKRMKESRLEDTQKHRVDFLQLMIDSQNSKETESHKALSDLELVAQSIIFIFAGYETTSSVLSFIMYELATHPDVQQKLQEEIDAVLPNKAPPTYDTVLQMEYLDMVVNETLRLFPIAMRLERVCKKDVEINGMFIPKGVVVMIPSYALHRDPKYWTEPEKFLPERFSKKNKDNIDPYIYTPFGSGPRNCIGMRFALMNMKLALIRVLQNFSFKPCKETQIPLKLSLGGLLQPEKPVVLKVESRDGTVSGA
# T1 sequence (P35991 whole entry): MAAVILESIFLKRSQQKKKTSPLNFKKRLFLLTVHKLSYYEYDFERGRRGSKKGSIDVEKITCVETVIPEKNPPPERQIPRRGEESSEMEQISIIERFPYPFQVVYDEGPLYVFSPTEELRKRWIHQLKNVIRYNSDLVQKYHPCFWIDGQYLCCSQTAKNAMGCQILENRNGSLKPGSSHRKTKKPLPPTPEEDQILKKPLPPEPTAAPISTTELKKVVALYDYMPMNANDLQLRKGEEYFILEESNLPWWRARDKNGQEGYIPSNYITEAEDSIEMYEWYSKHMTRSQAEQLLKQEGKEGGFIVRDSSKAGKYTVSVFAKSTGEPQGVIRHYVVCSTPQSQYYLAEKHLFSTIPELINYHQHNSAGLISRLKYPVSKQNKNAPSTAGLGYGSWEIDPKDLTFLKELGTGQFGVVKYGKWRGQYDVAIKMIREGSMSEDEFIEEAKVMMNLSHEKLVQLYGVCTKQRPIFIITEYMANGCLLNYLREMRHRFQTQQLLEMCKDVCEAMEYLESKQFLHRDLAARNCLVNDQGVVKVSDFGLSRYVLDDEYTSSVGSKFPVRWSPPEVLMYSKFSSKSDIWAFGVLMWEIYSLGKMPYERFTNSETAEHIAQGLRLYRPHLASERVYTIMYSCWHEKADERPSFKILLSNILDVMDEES
smiles,measurement,setting,value
"CC#CC(=O)N1CCC[C@H]1c1nc(-c2ccc(C(=O)Nc3ccccn3)cc2)c2c(N)nccn12 [Formula (2), (S)-4-(8-amino-3-(1-(but-2-ynoyl)pyrrolidin-2-yl)imidazo[1,5-a]pyrazin-1-yl)-N-(pyridin-2-yl)benzamide]",in vivo potency at inhibiting expression of activation markers CD69 and CD86,[1],more potent at inhibiting expression of activation makers than Formula (10) (ibrutinib)
same,glutathione binding and depletion,[2],binds to glutathione but does not deplete glutathione
same,CYP responsible for metabolism,CYP3A4,metabolized by CYP3A4
same,EC50,B cell receptor,8.2 nM
same,irreversible occupancy of total BTK in MDSCs,BTK,Complete BTK occupancy
same,activity in binding assays with 80 known pharmacologic targets,[3],significant activity only against the A3 adenosine receptor
same,inhibition of GPVI platelet aggregation,GPVI [4],does not
same,"metabolic processes in plasma, bile, and urine",[5],"metabolic processes of oxidation, glutathione binding, and hydrolysis"
same,CD8+ T cell function as measured by IFN-γ level,CD8^+ T cells [6],no effect
same,IC50,"GPVI [7]; read-out: IC50, GPVI platelet aggregation, purified human platelets, Convulxin (CVX)",1150 nM
same,inhibition of in vitro EGFR phosphorylation,"EGFR; 10 μM, A431 human epidermoid cancer cell line",no inhibition
same,inhibition at 10 µM,"EGFR; A-431, read-out: EGF-induced p-EGFR inhibition",7%
same,effect on human platelet-mediated thrombus formation,[8],no significant effect
same,unique human metabolite,hepatocytes; hepatocytes of six species,No unique human metabolite was identified
same,metabolites in hepatocytes,"hepatocytes; mouse, rat, dog, rabbit, monkey, and human hepatocytes, 14C-labeled drug",two mono-oxidized metabolites and a glutathione conjugate
same,potential for CYP-mediated drug-drug interactions,CYP enzymes,very unlikely to cause clinical drug-drug interactions
same,"effect on CD56+/CD107a+ NK cells, obinutuzumab-stimulated degranulation",NK cells [9],minimal effect
same,CD8+ T cell function as measured by % cytotoxicity,CD8^+ T cells [10],no effect
same,antagonism of rituximab ADCC effects mediated by NK cells,NK cells [11],does not antagonize
same,"effects on TAMs, MDSCs, Tregs, and CD8+ cells",[12],consistent with suppression of the solid tumor microenviroment
same,number of tumors,[12],fewer overall tumors
same,tumor volumes versus vehicle,[12],significant decrease
"C=CC(=O)N1CCC[C@@H](n2nc(-c3ccc(Oc4ccccc4)cc3)c3c(N)ncnc32)C1 [Formula (10), 1-[(3R)-3-[4-amino-3-(4-phenoxyphenyl)-1H-pyrazolo[3,4-d]pyrimidin-1-yl]piperidin-1-yl]prop-2-en-1-one, reference compound]",EC50,B cell receptor,6.1 nM
same,CD8+ T cell function as measured by IFN-γ level,CD8^+ T cells [6],affects CD8^+ T cell function
same,inhibition of GPVI platelet aggregation,"GPVI [7]; human platelets, CVX-induced",significantly inhibits
same,maximum tolerated dose (MTD),[13],No maximum tolerated dose (MTD) was apparent
same,CD8+ T cell function as measured by % cytotoxicity,CD8^+ T cells [10],affects CD8^+ T cell function
same,antagonism of rituximab ADCC effects mediated by NK cells,NK cells [11],undesirably antagonizes
"C=CC(=O)Nc1cccc(Nc2nc(Nc3ccc(OCCOC)cc3)ncc2F)c1 [Formula (17), N-(3-((5-fluoro-2-((4-(2-methoxyethoxy)phenyl)amino)pyrimidin-4-yl)amino)phenyl)acrylamide, reference compound]",EC50,B cell receptor,121 nM
same,effect on human platelet-mediated thrombus formation,[8],effect similar to Formula (10) (ibrutinib)
